Measurements taken from PubChem BioAssay (NCI).
“And” between values parts separate entries of the source, which are not always exact repeats. Identical values can stand only once.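 GI50 marks 50% less growth. The concentration for full growth arrest is given as TGI.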

Tests used:
Test in all cases: growth of human tumour cells (NCI), 384-well format
[1] = tested on: 786-0 renal
[2] = tested on: A498 renal
[3] = tested on: A549 NSCLC
[4] = tested on: ACHN renal
[5] = tested on: BT-549 breast
[6] = tested on: CAKI-1 renal
[7] = tested on: CCRF-CEM leukemia
[8] = tested on: COLO 205 colon
[9] = tested on: DU-145 prostate
[10] = tested on: EKVX NSCLC
[11] = tested on: HCC-2998 colon
[12] = tested on: HCT-116 colon
[13] = tested on: HCT-15 colon
[14] = tested on: HL-60(TB) leukemia
[15] = tested on: HOP-62 NSCLC
[16] = tested on: HOP-92 NSCLC
[17] = tested on: HS 578T breast
[18] = tested on: HT29 colon
[19] = tested on: IGROV1 ovarian
[20] = tested on: K-562 leukemia
[21] = tested on: KM12 colon
[22] = tested on: LOX IMVI melanoma
[23] = tested on: M14 melanoma
[24] = tested on: MALME-3M melanoma
[25] = tested on: MCF7 breast
[26] = tested on: MDA-MB-231 breast
[27] = tested on: MDA-MB-435 melanoma
[28] = tested on: MDA-MB-468 breast
[29] = tested on: MOLT-4 leukemia

For `CNC(=O)c1ccc(Nc2ncc(C(F)(F)F)c(NCc3nccnc3N(C)S(C)(=O)=O)n2)cc1`, the GI50 [1] was 2400 nM and 2390 nM, the TGI [1] was 10.8 µM and 8.97 µM and the GI50 [2] was 1080 nM and 1350 nM. For the same compound, the TGI [2] was 4.63 µM and 5.83 µM, the GI50 [3] was 2350 nM and 2240 nM and the TGI [3] was 6.47 µM and 6.06 µM. For the same compound, the GI50 [4] was 1910 nM and 2090 nM, the TGI [4] was 9.33 µM and 9.55 µM and the GI50 [5] was 1580 nM and 1990 nM. The TGI [5] was 3.4 µM and 4.08 µM, the GI50 [6] was 1300 nM and 1480 nM and the TGI [6] was 4.51 µM and 4.9 µM. The GI50 [7] was 1710 nM and 2100 nM, the TGI [7] was 3.28 µM and 3.73 µM and the GI50 [8] was 2030 nM and 2410 nM. For the same compound, the TGI [8] was 5.34 µM and 5.98 µM, the GI50 [9] was 1710 nM and 2200 nM and the TGI [9] was 10.7 µM and 11.1 µM. The GI50 [10] was 1580 nM and 1890 nM, the TGI [10] was 4.56 µM and 5.27 µM and the GI50 [11] was 1500 nM and 1740 nM. The TGI [11] was 4.34 µM and 4.68 µM, the GI50 [12] was 1750 nM and 1940 nM and the TGI [12] was 6.22 µM and 4.86 µM. For the same compound, the GI50 [13] was 1840 nM and 2790 nM, the TGI [13] was 5.7 µM and 8.92 µM and the GI50 [14] was 1610 nM and 2020 nM. For the same compound, the TGI [14] was 2.97 µM and 3.47 µM, the GI50 [15] was 2040 nM and 2110 nM and the TGI [15] was 6.31 µM and 7.25 µM. The GI50 [16] was 2210 nM and 2540 nM, the TGI [16] was 6.44 µM and 6.5 µM and the GI50 [17] was 1300 nM and 449 nM. The TGI [17] was 3100 nM and 2420 nM, the GI50 [18] was 2110 nM and 2250 nM and the TGI [18] was 5.19 µM and 5.71 µM. The GI50 [19] was 558 nM and 673 nM, the TGI [19] was 5.91 µM and 8.38 µM and the GI50 [20] was 3.45 µM and 3.44 µM. The TGI [20] was 16.8 µM, the GI50 [21] was 250 nM and 239 nM and the TGI [21] was 2360 nM and 2860 nM. For the same compound, the GI50 [22] was 1530 nM and 1650 nM, the TGI [22] was 3.34 µM and 3.52 µM and the GI50 [23] was 1290 nM and 1530 nM. The TGI [23] was 3.78 µM and 4.15 µM, the GI50 [24] was 2120 nM and 2650 nM and the TGI [24] was 4.88 µM and 6.18 µM. For the same compound, the GI50 [25] was 2210 nM and 1900 nM, the TGI [25] was 7.68 µM and 5.85 µM and the GI50 [26] was 2380 nM and 3040 nM. The TGI [26] was 11.7 µM and 14.6 µM, the GI50 [27] was 2.88 µM and 4.55 µM and the TGI [27] was 11.8 µM and 14.4 µM. The GI50 [28] was 1350 nM and 1790 nM, the TGI [28] was 2.95 µM and 3.71 µM and the GI50 [29] was 1950 nM and 2160 nM. For the same compound, the TGI [29] was 3.58 µM and 3.84 µM.
